Columns and labels:
GABAa receptor = GABAa receptor binding assay: inhibition of 3H-RO15-1788 (3H-Flumazenil) binding to rat cortical tissue; settings: 0.5 nM 3H-RO15-1788, 30 min at 4° C., nonspecific binding with 1.0 μM diazepam
Description: The pharmaceutical utility of compounds of this invention are indicated by the following assay for GABAa receptor activity.
Assays are carried out as described in Thomas and Tallman (J. Bio. Chem. 156: 9838-9842, J. Neurosci. 3:433-440, 1983). Rat cortical tissue is dissected and homogenized in 25 volumes (w/v) of 0.05M Tris HCl buffer (pH 7.4 at 4° C.). The tissue homogenate is centrifuged in the cold (4°) at 20,000×g for 20'. The supernatant is decanted and the pellet is rehomogenized in the same volume of buffer and again centrifuged at 20,000×g. The supernatant is decanted and the pellet is frozen at -20° C. overnight. The pellet is then thawed and rehomogenized in 25 volume (original wt/vol) of buffer and the procedure is carried out twice. The pellet is finally resuspended in 50 volumes (w/vol of 0.05M Tris HCl buffer (pH 7.4 at […]).
Incubations contain 100 μl of tissue homogenate, 100 μl of radioligand 0.5 nM (^3 H-RO15-1788 [^3 H-Flumazenil] specific activity 80 Ci/mmol), drug or blocker and buffer to a total volume of 500 μl. Incubations are carried for 30 min at 4° C. then are rapidly filtered through GFB filters to separate free and bound ligand. Filters are washed twice with fresh 0.05M Tris HCl buffer (pH 7.4 at 4° C.) and counted in a liquid scintillation counter. 1.0 μM diazepam is added to some tubes to determine nonspecific binding. Data are collected in triplicate determinations, averaged and % inhibition of total specific binding is calculated. Total Specific Binding=Total-Nonspecific. In some cases, the amounts of unlabeled drugs is varied and total displacement curves of binding are carried out. Data are converted to a form for the calculation of IC50 and Hill Coefficient (nH).

[1] = tested on: benzodiazepine binding site; settings: cited from earlier work

COc1ccc(-c2cnc3[nH]c4c(c3n2)CCCC4)c(F)c1 [Compound 11, 2-(2-Fluoro-4-methoxyphenyl)-6,7,8,9-tetrahydro-5H-indolo[2,3-b]pyrazine]
IC50 (GABAa receptor): 29 nM

CN1CCc2cc3c(cc2[C@@H]1[C@H]1OC(=O)c2c1ccc1c2OCO1)OCO3 [(-) bicuculline]
block of GABA-agonist enhancement of benzodiazepine binding [1]: much less active

Fc1ccccc1-c1cnc2[nH]c3c(c2n1)CCCC3 [Compound 5, 2-(2-Fluorophenyl)-6,7,8,9-tetrahydro-5H-indolo[2,3-b]pyrazine]
IC50 (GABAa receptor): 45 nM

COc1ccc(-c2cnc3[nH]c4ccccc4c3n2)c(F)c1 [Compound 12, 2-(2-Fluoro-4-methoxyphenyl)-5H-indolo[2,3-b]pyrazine]
IC50 (GABAa receptor): 533 nM

COc1ccc(F)c(-c2cnc3[nH]c4c(c3n2)CCCC4)c1 [Compound 1, 2-(2-Fluoro-5-methoxyphenyl)-6,7,8,9-tetrahydro-5H-indolo[2,3-b]pyrazine]
IC50 (GABAa receptor): 200 nM

CN1CCc2cc3c(cc2[C@H]1[C@@H]1OC(=O)c2c1ccc1c2OCO1)OCO3 [(+) bicuculline]
block of GABA-agonist enhancement of benzodiazepine binding [1]: blocked
